Data: publication PMC10054240, “New Inhibitors of Respiratory Syncytial Virus (RSV) Replication Based on Monoterpene-Substituted Arylcoumarins” (Molecules, 2023)
Several values for one entry are separate records, joined by “and”; a condition that tells them apart may be missing. Identical values can stand only once. Like-named read-outs stand apart in the source and are kept apart here.

How the values were obtained:
HEp-2 cells = experiment: Cytotoxicity on non-infected HEp-2 cells, MTT assay; assay type: cell-based; conditions: for CC50: read-out: CC50 (50% cytotoxic concentration), MTT, 24 h
RSV A strain A2 = experiment: Antiviral activity against RSV A strain A2 in HEp-2 cells (ELISA virus titer); assay type: cell-based, respiratory syncytial virus; conditions: for pIC50 (-lg[IC50]): RSV A; for pIC50 (-lg[IC50]) / IC50: from Table 1 values; for IC50: HEp-2, RSV A, read-out: pIC50 (-lg[IC50]) (converted)
[1] = Cytotoxicity on non-infected HEp-2 cells, MTT assay; assay type: cell-based; conditions: human, non-infected HEp-2 cells, CC50 (50% cytotoxic concentration), MTT, 24 h
[2] = read-out: EC50 (50% effective concentration)
[3] = human respiratory syncytial virus
[4] = human respiratory syncytial virus, HEp-2, read-out: EC50 (50% effective concentration)
[5] = human respiratory syncytial virus, read-out: EC50 (50% effective concentration), RSV A strain A2, HEp-2 cells

| SMILES | CC50 (HEp-2 cells) [µM] | SI (selective index) (RSV A strain A2) | pIC50 (-lg[IC50]) (RSV A strain A2) | EC50 (RSV A strain A2; [2]) [µM] | CC50 at 24 h [1] [µM] | IC50 (RSV A strain A2; [3]) [µM] | EC50 (RSV A strain A2; [4]) [µM] | EC50 (RSV A strain A2; human respiratory syncytial virus, HEp-2, read-out: EC50 (50% effective concentration), RSV A strain A2, HEp-2 cells) [µM] | EC50 (RSV A strain A2; [5]) [µM] | cytotoxicity (in words) (HEp-2 cells) |
| --- | --- | --- | --- | --- | --- | --- | --- | --- | --- | --- |
| CC1(C)C2CC=C(COc3ccc4c(-c5ccc(F)cc5)cc(=O)oc4c3)C1C2 (centres unmarked) [Compound 16c] | 20.5 ± 4.9 | 1.4 | 4.84 | 14.3 ± 2.9 |  |  |  |  |  |  |
| CC1(C)[C@H]2CC=C(CCCOc3ccc4c(-c5ccc(F)cc5)cc(=O)oc4c3)[C@@H]1C2 [Compound 16e, 7-(3-((1R,5S)-6,6-Dimethylbicyclo[3.1.1]hept-2-en-2-yl)propoxy)-4-(4-fluorophenyl)-2H-chromen-2-one] |  | 9 |  |  | 996 ± 8.2 | 110 | 110 ± 10.4 |  |  |  |
| CC1(C)[C@H]2CC=C(CCCCOc3ccc4c(-c5ccc(F)cc5)cc(=O)oc4c3)[C@@H]1C2 [Compound 16f, 7-(4-((1R,5S)-6,6-Dimethylbicyclo[3.1.1]hept-2-en-2-yl)butoxy)-4-(4-fluorophenyl)-2H-chromen-2-one] |  | 11.8 |  | 9.2 ± 1.1 | 109 ± 10.5 | 9.33 | 9 |  |  |  |
| O=c1cc(-c2ccc(F)cc2)c2ccc(OCc3ccccc3)cc2o1 [Compound 16g, 7-(Benzyloxy)-4-(4-fluorophenyl)-2H-chromen-2-one] |  | <0.9 | 3.20 |  | 655 ± 29.7 | 692 |  | > 690 |  |  |
| COc1ccc(-c2cc(=O)oc3cc(OC/C=C(\C)CCC=C(C)C)ccc23)cc1 [Compound 17a] |  | 5.8 | 4.20 |  | 339 ± 26.3 | 58.9 | 58.3 ± 8.5 |  |  |  |
| COc1ccc(-c2cc(=O)oc3cc(OCC4=CCC5CC4C5(C)C)ccc23)cc1 (centres unmarked) [Compound 17b] |  | <1 | 4.90 |  | 12.4 ± 2.8 | > 12.6 | > 12 |  |  |  |
| COc1ccc(-c2cc(=O)oc3cc(OCC4=CCC5CC4C5(C)C)ccc23)cc1 (centres unmarked) [Compound 17c] | 14.7 ± 2.9 | <1 | < 4.8 and 4.80 | > 15 |  |  |  |  |  |  |
| COc1ccc(-c2cc(=O)oc3cc(OCCC4=CCC5CC4C5(C)C)ccc23)cc1 (centres unmarked) [Compound 17d] |  | 10.6 |  |  | 677 ± 22.9 | 64.6 | 64.1 ± 5.4 |  |  |  |
| COc1ccc(-c2cc(=O)oc3cc(OCCCC4=CC[C@H]5C[C@@H]4C5(C)C)ccc23)cc1 [Compound 17e, 7-(3-((1R,5S)-6,6-Dimethylbicyclo[3.1.1]hept-2-en-2-yl)propoxy)-4-(4-methoxyphenyl)-2H-chromen-2-one] |  |  |  |  | > 100 |  |  |  | 35.9 ± 5.7 |  |
| COc1ccc(-c2cc(=O)oc3cc(OCCCCC4=CC[C@H]5C[C@@H]4C5(C)C)ccc23)cc1 [Compound 17f, 7-(4-((1R,5S)-6,6-Dimethylbicyclo[3.1.1]hept-2-en-2-yl)butoxy)-4-(4-methoxyphenyl)-2H-chromen-2-one] |  |  | 4.97 | 10.8 ± 1 | 117 ± 7 | > 12.6 | 10 |  |  |  |
| COc1ccc(-c2cc(=O)oc3cc(OCc4ccccc4)ccc23)cc1 [Compound 17g] |  | <1 | 4.80 |  | 16.8 ± 3.2 | > 17 | > 17 |  |  |  |
| CC1(C)[C@H]2CC=C(CNc3ccc4c(-c5ccccc5)cc(=O)oc4c3)[C@@H]1C2 [Compound 21, 7-(((1R,5S)-6,6-Dimethylbicyclo[3.1.1]hept-2-en-2-yl)methylamino)-4-phenyl-2H-chromen-2-one] |  |  | 4.90 |  | 20.5 ± 1.4 | > 12.6 | > 13 |  |  | abrupt increase in cytotoxicity |
| CC1(C)[C@H]2CC=C(CCNc3ccc4c(-c5ccccc5)cc(=O)oc4c3)[C@@H]1C2 [Compound 22, 7-(2-((1R,5S)-6,6-Dimethylbicyclo[3.1.1]hept-2-en-2-yl)ethylamino)-4-phenyl-2H-chromen-2-one] |  | 6 |  |  | 480 ± 18.4 | 79.4 | 79.9 ± 7.4 |  |  |  |
| NC(=O)c1ncn([C@@H]2O[C@H](CO)[C@@H](O)[C@H]2O)n1 [Ribavirin, reference compound] |  |  |  |  | > 4000 |  |  |  | 80.1 ± 13.5 |  |
